Among the data in PubChem BioAssay AID977614 (Broad Institute, 2014) are AC50 values, retold here.

Active and inactive are the calls of the source.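 Rule for the calls: active = parasite count per well reduced by over 3 SD from the mean, with host cell number above 80% of untreated; inactive = the rest.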 Bounds are passed on as bounds.

The test system of the assay is L. donovani amastigotes in THP-1 macrophages, DAPI imaging, 72 h. Description: L. donovani intracellular amastigote growth inhibitors, imaging, THP-1 host macrophages, single concentration (AID 977614).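 Note: signal is the parasite per host cell ratio from DAPI stained kinetoplasts and nuclei.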
On to `Cc1noc(C)c1S(=O)(=O)N(C)C[C@@H]1OCc2cn(nn2)CCCC(=O)N([C@@H](C)CO)C[C@H]1C`, for which the AC50 (in general, the concentration giving half of the maximal activity seen) was > 10 µM (inactive). The result for `C[C@@H]1CN([C@@H](C)CO)C(=O)CCCn2nncc2CO[C@@H]1CN(C)C(=O)CCC(F)(F)F` reads > 10 µM (inactive); that for `COCC(=O)N(C)C[C@H]1[C@H](c2ccccc2)[C@@H](CO)N1C(=O)Cc1ccncc1`, > 10 µM (inactive).

As to `O=C(Nc1ccccc1Cl)N1C[C@H]2[C@@H](c3ccccc31)[C@@H](CO)N2C(=O)c1cccnc1`, the AC50 was > 10 µM (inactive). With `CC(C)CNC[C@@H]1[C@@H](c2ccccc2)[C@@H](CO)N1Cc1ccc(F)cc1`, the AC50 is > 10 µM (inactive). The result for `O=C(NC[C@H]1N[C@H](CO)[C@@H]1c1ccccc1)c1ccccc1F` reads > 10 µM (inactive); that for `CNC[C@@H]1OCc2cnnn2CCCC(=O)N([C@H](C)CO)C[C@H]1C`, > 10 µM (inactive); that for `C[C@H](CO)N1C[C@H](C)[C@@H](CN(C)C(=O)c2ccc(N3CCN(C)CC3)cc2)OCc2cnnn2CCCC1=O`, > 10 µM (inactive). As for `Cc1cccc(S(=O)(=O)N2C[C@H]3[C@@H](c4ccccc42)[C@H](CO)N3CC2CCCC2)c1`, the AC50 was > 10 µM (inactive).

In the case of `CN1C[C@H]2[C@@H](c3ccccc31)[C@@H](CO)N2C(=O)C1CCOCC1`, the AC50 was > 10 µM (inactive).

With `O=C(NC[C@@H]1[C@@H](c2ccccc2)[C@@H](CO)N1C(=O)Cc1ccncc1)C1CCC1`, the AC50 was > 10 µM (inactive).

Take `C[C@@H]1CN([C@H](C)CO)C(=O)CCCn2nncc2CO[C@@H]1CN(C)C(=O)Nc1ccnc(N2CCOCC2)c1`: the AC50 was > 10 µM (inactive). Take `COCC(=O)N1[C@H](CNC(=O)c2ccccn2)[C@H](c2ccccc2)[C@@H]1CO`: the AC50 is > 10 µM (inactive).

In the case of `O=C(NC[C@H]1[C@H](c2ccccc2)[C@H](CO)N1C(=O)C1CCC1)NC1CCCC1`, the AC50 is > 10 µM (inactive). Consider `C[C@@H]1CN([C@@H](C)CO)C(=O)CCCn2nncc2CO[C@H]1CN(C)Cc1ccc(C(=O)Nc2ccccc2N)cc1`, for which the AC50 was > 10 µM (inactive). For `COCC(=O)N(C[C@@H]1[C@@H](c2ccccc2)[C@H](CO)N1C(=O)NC(C)C)C(C)C`, the AC50 is > 10 µM (inactive). As to `C[C@@H]1CN([C@@H](C)CO)C(=O)CCCn2nncc2CO[C@H]1CN(C)C(=O)c1cc(-c2ccccc2)on1`, the AC50 is > 10 µM (inactive).

On to `C/C=C/c1ccc([C@@H]2[C@@H](CO)N(C(C)=O)[C@@H]2CN(CC)C(=O)CN(C)C)cc1`, for which the AC50 is > 10 µM (inactive). With `O=C(c1ccccn1)N1C[C@@H]2[C@H](c3ccccc31)[C@H](CO)N2C(=O)C1CCCCC1`, the AC50 was > 10 µM (inactive). On to `C[C@H](CO)N1C[C@H](C)[C@@H](CN(C)C(=O)NC2CCCC2)OCc2cnnn2CCCC1=O`, for which the AC50 is > 10 µM (inactive). The result for `O=C(c1ccncc1)N1C[C@@H]2[C@H](c3ccccc31)[C@@H](CO)N2C(=O)CN1CCOCC1` reads > 10 µM (inactive).

As to `COCC(=O)N1[C@H](CO)[C@@H]2c3ccccc3N(C)C[C@@H]21`, the AC50 was > 10 µM (inactive). Turning to `C[C@H]1CN([C@@H](C)CO)C(=O)CCCn2nncc2CO[C@H]1CN(C)C(=O)Nc1ccccc1C(F)(F)F`, the AC50 was > 10 µM (inactive). Regarding `CC(=O)N1[C@H](CO)[C@H](c2ccccc2)[C@H]1CN(CC(C)C)C(=O)c1ccccn1`, the AC50 is > 10 µM (inactive). As for `O=C(c1ccccc1F)N1C[C@H]2[C@@H](c3ccccc31)[C@@H](CO)N2C(=O)Nc1ccccc1`, the AC50 was > 10 µM (inactive).

With `COCC(=O)N1[C@@H]2CN(C(=O)Nc3ccccc3Cl)c3ccccc3[C@@H]2[C@@H]1CO`, the AC50 was > 10 µM (inactive). Regarding `COc1ccc(NC(=O)N(C)C[C@H]2OCc3cnnn3CCCC(=O)N([C@H](C)CO)C[C@@H]2C)c(OC)c1`, the AC50 was > 10 µM (inactive). Turning to `C/C=C/c1ccc([C@H]2[C@@H](CO)N(C(=O)CC)[C@H]2CN(C)Cc2cncnc2)cc1`, the AC50 is > 10 µM (inactive). Consider `O=C(CC(F)(F)F)N1C[C@H]2[C@@H](c3ccccc31)[C@H](CO)N2CC1CCOCC1`, for which the AC50 was > 10 µM (inactive). The result for `CC(=O)N1[C@@H](CO)[C@H](c2ccccc2)[C@@H]1CN(CC1CCC1)C(=O)CN(C)C` reads > 10 µM (inactive); that for `COCC(=O)N1C[C@H]2[C@@H](c3ccccc31)[C@@H](CO)N2Cc1cc(F)ccc1F`, > 10 µM (inactive). The result for `O=C(Nc1cccc(F)c1)N1C[C@@H]2[C@H](c3ccccc31)[C@@H](CO)N2C(=O)Cc1ccccn1` reads > 10 µM (inactive); that for `CC(C)N(C[C@H]1[C@H](c2ccccc2)[C@H](CO)N1S(C)(=O)=O)C(=O)CN(C)C`, > 10 µM (inactive).

As to `COc1ccccc1-c1ccc([C@H]2[C@@H](CO)N(C(C)=O)[C@H]2CN(C)C(C)=O)cc1`, the AC50 was > 10 µM (inactive). Regarding `C/C=C/c1ccc([C@H]2[C@@H](CN(C)C(C)=O)N(C(=O)NC(C)C)[C@H]2CO)cc1`, the AC50 was > 10 µM (inactive). For `COCC(=O)N1[C@H](CO)[C@H](c2ccc(C#CC(C)C)cc2)[C@@H]1CNC(C)=O`, the AC50 is > 10 µM (inactive). Turning to `CC(C)CN(C[C@H]1N[C@H](CO)[C@@H]1c1ccccc1)C(=O)C1CCCCC1`, the AC50 is > 10 µM (inactive). As for `CNC[C@@H]1OCc2cn(nn2)CCCC(=O)N([C@@H](C)CO)C[C@H]1C`, the AC50 is > 10 µM (inactive). On to `CC(C)NC(=O)N1[C@H](CNC(=O)CN(C)C)[C@@H](c2ccccc2)[C@@H]1CO`, for which the AC50 is > 10 µM (inactive). On to `C/C=C/c1ccc([C@@H]2[C@@H](CN(CC)C(=O)CN(C)C)N(C(C)=O)[C@H]2CO)cc1`, for which the AC50 is > 10 µM (inactive). `OC[C@H]1[C@@H]2c3ccccc3NC[C@@H]2N1CC1CCOCC1`: the AC50 was > 10 µM (inactive). Consider `CC(=O)N1[C@H](CO)[C@H](c2ccccc2)[C@@H]1CN(CC(C)C)C(=O)c1ccccn1`, for which the AC50 is > 10 µM (inactive).

Consider `COc1ccc(CN2[C@H](CO)[C@@H]3c4ccccc4N(C(=O)NC(C)C)C[C@@H]32)cc1`, for which the AC50 was > 10 µM (inactive). The result for `O=C(Nc1ccccc1Cl)N1C[C@@H]2[C@H](c3ccccc31)[C@@H](CO)N2C(=O)c1cccnc1` reads > 10 µM (inactive); that for `COc1ccc(NC(=O)N(C)C[C@H]2OCc3cnnn3CCCC(=O)N([C@@H](C)CO)C[C@@H]2C)c(OC)c1`, > 10 µM (inactive). The result for `COCC(=O)N1C[C@@H]2[C@H](c3ccccc31)[C@@H](CO)N2C(=O)c1ccccc1F` reads > 10 µM (inactive); that for `CC(C)NC(=O)N1[C@H](CO)[C@@H]2c3ccccc3N(C)C[C@@H]21`, > 10 µM (inactive); that for `C[C@@H]1CN([C@@H](C)CO)C(=O)CCCn2nncc2CO[C@H]1CN(C)S(=O)(=O)c1ccc2c(c1)OCCCO2`, > 10 µM (inactive). On to `O=C(Cc1cccnc1)N1[C@@H](CO)[C@@H](c2ccccc2)[C@@H]1CNCC1CCC1`, for which the AC50 is > 10 µM (inactive). On to `C[C@@H]1CN([C@H](C)CO)C(=O)CCCn2nncc2CO[C@H]1CN(C)Cc1ccc2c(c1)OCCN2C`, for which the AC50 is > 10 µM (inactive). The result for `COc1ccc(C(=O)N2C[C@H]3[C@@H](c4ccccc42)[C@H](CO)N3C(=O)NC(C)C)cc1` reads > 10 µM (inactive). Regarding `CN1C[C@H]2[C@@H](c3ccccc31)[C@@H](CO)N2C(=O)c1cccnc1`, the AC50 is > 10 µM (inactive).

For the compound `O=C(c1cnccn1)N1C[C@H]2[C@@H](c3ccccc31)[C@@H](CO)N2CC1CCCC1`, the AC50 was > 10 µM (inactive). Regarding `C[C@H](CO)N1C[C@H](C)[C@H](CN(C)C(=O)CCC(F)(F)F)OCc2cn(nn2)CCCC1=O`, the AC50 is > 10 µM (inactive).

Turning to `CCN(C[C@H]1[C@H](c2ccc(C3=CCCCC3)cc2)[C@H](CO)N1CC1CC1)C(C)=O`, the AC50 was > 10 µM (inactive). Regarding `CN(C[C@H]1[C@@H](c2ccccc2)[C@H](CO)N1Cc1ccccn1)S(C)(=O)=O`, the AC50 is > 10 µM (inactive). The result for `CNC[C@H]1OCc2cnnn2CCCC(=O)N([C@H](C)CO)C[C@H]1C` reads > 10 µM (inactive); that for `C[C@@H]1CN([C@@H](C)CO)C(=O)CCCn2nncc2CO[C@H]1CN(C)C(=O)c1ccc2ccn(C)c2c1`, > 10 µM (inactive); that for `C[C@@H]1CN([C@@H](C)CO)C(=O)CCCn2nncc2CO[C@H]1CN(C)Cc1ccc2c(c1)OCCN2C`, > 10 µM (inactive). `CCN(C[C@@H]1[C@@H](c2ccc(C3=CCCCC3)cc2)[C@@H](CO)N1CC1CC1)C(C)=O`: the AC50 is > 10 µM (inactive). The result for `CC(=O)N1C[C@H]2[C@@H](c3ccccc31)[C@@H](CO)N2Cc1ccc(Cl)cc1` reads > 10 µM (inactive); that for `COc1ccc(CN2[C@@H]3CNc4ccccc4[C@@H]3[C@@H]2CO)cc1`, > 10 µM (inactive); that for `CN(C[C@H]1[C@@H](c2ccccc2)[C@@H](CO)N1C(=O)C1CCC1)C(=O)c1ccncc1`, > 10 µM (inactive). With `O=C(Nc1ccc(Cl)cc1)N1C[C@H]2[C@@H](c3ccccc31)[C@@H](CO)N2CC1CCCCC1`, the AC50 is > 10 µM (inactive). Regarding `Cc1ccc(S(=O)(=O)N2C[C@@H]3[C@H](c4ccccc42)[C@H](CO)N3Cc2cccnc2)cc1`, the AC50 was > 10 µM (inactive). The result for `CCC(=O)N(C)C[C@H]1[C@@H](c2ccc(-c3cccc(F)c3)cc2)[C@@H](CO)N1C(C)=O` reads > 10 µM (inactive); that for `COc1cccc(C(=O)N2C[C@H]3[C@@H](c4ccccc42)[C@H](CO)N3C(=O)c2cccc(F)c2)c1`, > 10 µM (inactive). For the compound `C[C@@H]1CN([C@H](C)CO)C(=O)CCCn2nncc2CO[C@@H]1CN(C)Cc1ccc2c(c1)OCCN2C`, the AC50 was > 10 µM (inactive). On to `C/C=C/c1ccc([C@@H]2[C@@H](CNC(=O)CC3CC3)N(C(=O)CC)[C@H]2CO)cc1`, for which the AC50 was > 10 µM (inactive). In the case of `CCC(=O)N1[C@@H](CO)[C@H](c2ccccc2)[C@@H]1CN(C)C(=O)CN1CCOCC1`, the AC50 was > 10 µM (inactive).
